Measured values reported in US20080132539A1, “Hydroxamic Acid Derivative And Age Generation Inhibitor Containing The Derivative” (priority 2003, published 2008).

System: Maillard reaction (lysozyme / fructose, dimer formation)
Assay: Maillard reaction-inhibiting effects (lysozyme dimer formation with fructose, SDS-PAGE densitometry)
Assay type: biochemical
Conditions: 10 mg/mL lysozyme, 200 mM fructose, pH 7.4, 37° C., 4 days, dimer formation inhibition rate
Description: This Example examined Maillard reaction-inhibiting effects using, as test compounds, the compounds produced in the above-described Examples and the commercially available substances arginine hydroxamate (Compound No. 111), tyrosine hydroxamate (Compound No. 112), and tryptophan hydroxamate (Compound No. 113). More specifically, 10 mg/mL lysozyme, 200 mM fructose, and each of the above-described test compounds dissolved in a 0.4 mM sodium phosphate buffer (pH 7.4) so as to provide a concentrations of 0.1, 0.3, 1, or 3 mM were incubated at 37° C. for 4 days. After the incubation, the samples were subjected to SDS-PAGE, stained with Coomassie Brilliant Blue R-250, and quantitated for the formed dimmers using a densitometer. The Maillard reaction-inhibiting activity was defined as the dimmer formation inhibition rate of a test compound calculated on the basis that the amount of dimmer is 100% in the absence of the test compound, using, as blank, the amount of dimer in the absence of fructose and the test compound.

[1] = test compound concentration 0.1 mM
[2] = test compound concentration 0.3 mM
[3] = test compound concentration 1 mM
[4] = test compound concentration 3 mM

| SMILES | Maillard reaction-inhibiting activity (%) [1] | Maillard reaction-inhibiting activity (%) [2] | Maillard reaction-inhibiting activity (%) [3] | Maillard reaction-inhibiting activity (%) [4] |
| --- | --- | --- | --- | --- |
| Cc1ccc(C(=O)Nc2ccc(C[C@H](N)C(=O)NO)cc2)cc1 [Compound No. 30, (S)-2-amino-3-[4-(4-methylbenzoyl)amino-phenyl]-N-hydroxypropionamide] | 56% | 74% | 80% | 92% |
| N[C@@H](CCCNC(=O)c1ccc([N+](=O)[O-])cc1)C(=O)NO [Compound No. 15, (S)-2-amino-5-(4-nitrobenzoylamino)pentanoic acid hydroxyamide] | −12% | −2% | 43% | 98% |
| CCCCCN(CCCCC)CCC[C@H](N)C(=O)NO [Compound No. 26, (S)-2-amino-5-dipentylaminopentanoic acid hydroxyamide] | 11% | 17% | 68% | 100% |
| N#Cc1ccc(COc2ccc(C[C@H](N)C(=O)NO)cc2)cc1 [Compound No. 103, (S)-2-amino-3-[4-(4-cyanobenzyloxy)phenyl]-N-hydroxypropionamide] | 89% | 95% | 100% | 97% |
| CC(C)(C)c1ccc(COc2ccc(C[C@H](N)C(=O)NO)cc2)cc1 [Compound No. 99, (S)-2-amino-3-[4-(4-t-butylbenzyloxy)phenyl]-N-hydroxypropionamide] | 95% | 95% | 99% | 101% |
| CCCn1c(CC[C@H](NCC2CCCCC2)C(=O)NO)nc2ccccc21 [Compound No. 97, (S)-2-(cyclohexylmethyl-amino)-4-(1-propyl-1H-benzimidazol-2-yl)-N-hydroxybutyramide] | 96% | 98% | 98% | 98% |
| N[C@@H](CCc1nc2ccccc2n1C1CCOCC1)C(=O)NO [Compound No. 76, (S)-2-amino-N-hydroxy-4-[1-(tetrahydropyran-4-yl)-1H-benzimidazol-2-yl]butyramide] | 13% | 65% | 95% | 98% |
| N[C@@H](CCCNC(=O)CC1CCCCC1)C(=O)NO [Compound No. 19, (S)-2-amino-5-(cyclohexylacetylamino)pentanoic acid hydroxyamide] | 10% | 54% | 95% | 101% |
| CC(C)(C)c1ccc(NC(=O)CC[C@H](N)C(=O)NO)cc1 [Compound No. 2, (S)-2-amino-4-(4-t-butylphenylaminocarbonyl)-N-hydroxybutyramide] | 86% | 100% | 100% | 100% |
| N[C@@H](CCC(=O)NCc1ccccn1)C(=O)NO [Compound No. 7, (S)-2-amino-4-(pyridin-2-ylmethylaminocarbonyl)-N-hydroxybutyramide] | −3% | −4% | 13% | 72% |
| N[C@@H](Cc1ccc(OCc2ccccc2-c2ccccc2)cc1)C(=O)NO [Compound No. 100, (S)-2-amino-3-[4-(2-phenylbenzyloxy)phenyl]-N-hydroxypropionamide] | 93% | 96% | 96% | 97% |
| CCCCCn1cc(C[C@@H](N)C(=O)NO)c2ccccc21 [Compound No. 110, (R)-2-amino-3-(1-pentyl-1H-indol-3-yl)-N-hydroxypropionamide] | 96% | 103% | 101% | 101% |
| CN(C)NC(=O)c1ccc(C[C@H](N)C(=O)NO)cc1 [Compound No. 37, (S)-2-amino-3-(4-dimethylaminocarbamoyl-phenyl)-N-hydroxypropionamide] | 1% | 16% | 35% | 94% |
| CC(C)(C)c1ccc(Cn2cc(CC(N)C(=O)NO)c3ccccc32)cc1 (racemic) [Compound No. 106, (RS)-2-amino-3-[1-(4-t-butylbenzyl)-1H-indol-3-yl]-N-hydroxypropionamide] | 94% | 95% | 97% | 95% |
| N[C@@H](Cc1ccc(OCc2ccc(F)cc2F)cc1)C(=O)NO [Compound No. 102, (S)-2-amino-3-[4-(2,4-difluorobenzyloxy)phenyl]-N-hydroxypropionamide] | 78% | 88% | 94% | 95% |
| N[C@@H](CCc1nc2ccccc2n1C1CCCCC1)C(=O)NO [Compound No. 75, (S)-2-amino-N-hydroxy-4-(1-cyclohexyl-1H-benzimidazol-2-yl)butyramide] | 82% | 100% | 100% | 100% |
| Cc1ccc(CN(CCC[C@H](N)C(=O)NO)Cc2ccc(C)cc2)cc1 [Compound No. 28, (S)-2-amino-5-[bis-(4-methyl-benzyl)amino]pentanoic acid hydroxyamide] | 100% | 100% | 100% | 100% |
| N[C@@H](CCCNC(=O)Cc1ccc([N+](=O)[O-])cc1)C(=O)NO [Compound No. 16, (S)-2-amino-5-(4-nitrophenylacetylamino)pentanoic acid hydroxyamide] | −7% | 11% | 71% | 98% |
| CCCCCn1c(CC[C@H](N)C(=O)NO)nc2cc(Cl)c(Cl)cc21 [Compound No. 96, (S)-2-amino-4-(5,6-dichloro-1-pentyl-1H-benzimidazol-2-yl)-N-hydroxybutyramide] | 99% | 103% | 104% | 104% |
| CC(C)Cn1c(CC[C@H](N)C(=O)NO)nc2ccccc21 [Compound No. 72, (S)-2-amino-N-hydroxy-4-(1-isobutyl-1H-benzimidazol-2-yl)butyramide] | 53% | 94% | 100% | 101% |
